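Each compound was tested at five concentrations against cells in 96-well plates for 48 hours. Abbreviation: GI50, concentration required for 50% inhibition of growth.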 Calls of active or inactive are those of the source. Rule as the data show it: active = GI50 up to about 1.1 µM and inactive = higher.

Among the test systems are COLO 205; HCT-116; NCI-H226; EKVX; Malme-3M; A498; SNB-78; MOLT-4; HT-29; RPMI-8226; M19-MEL; SNB-75; HOP-92; OVCAR-8; DMS-114; SK-MEL-5; HL-60; CAKI-1; U-251; HOP-18.
Common to all, as to assay: NCI tumour cell line growth inhibition, 48 h

In the case of `O=S(=O)(CF)OCCCCOS(=O)(=O)CF`, the GI50 in the experiment on COLO 205, with HCT-116, with NCI-H226, with EKVX, in the experiment on Malme-3M and in the experiment with A498 was > 100 µM (inactive) each time. Besides, the GI50 in the experiment with SNB-78 is > 100 µM (inactive); in the experiment with MOLT-4, 23.8 µM (inactive); in the experiment on HT-29, > 100 µM (inactive); in the experiment with RPMI-8226, > 100 µM (inactive); in the experiment on M19-MEL it was > 100 µM (inactive); with SNB-75 it was 27.7 µM (inactive). Moreover, the GI50 in the experiment on HOP-92 was 0.701 µM (active); with OVCAR-8, > 100 µM (inactive); in the experiment on DMS-114, 74 µM (inactive); with SK-MEL-5 it was > 100 µM (inactive); in the experiment with HL-60, 13.2 µM (inactive); with CAKI-1 it was > 100 µM (inactive). The GI50 in the experiment with U-251 and with HOP-18 was > 100 µM (inactive) throughout.
